Reference: patent publication US12606541B2, “PPARg modulators and methods of use” (Eisai R&D Management Co., Ltd., priority 2020, dated 2026)

Each compound was assayed against T1, His6-TEV-PPARγ-(234-505) (Homo sapiens, UniProt P37231) (assay: TR-FRET Assay to Measure Co-R Peptide Recruitment to PPARγ). Conditions: Co-R peptide recruitment to PPARγ; read-out: TR-FRET AC50.
T1 construct: The His6-TEV-PPARγ-(234-505) protein for assay was expressed and purified; TEV cleavage site (N); made in house
T1 sequence (P37231 234-505): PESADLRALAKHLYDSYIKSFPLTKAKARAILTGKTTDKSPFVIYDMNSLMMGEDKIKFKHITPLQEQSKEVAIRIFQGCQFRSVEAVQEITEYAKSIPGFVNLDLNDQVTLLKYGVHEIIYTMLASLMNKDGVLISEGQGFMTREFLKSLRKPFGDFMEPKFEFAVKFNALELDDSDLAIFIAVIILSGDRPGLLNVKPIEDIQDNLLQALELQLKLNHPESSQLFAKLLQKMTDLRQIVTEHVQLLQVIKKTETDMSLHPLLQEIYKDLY
Assay type: biochemical
Procedure, shortened: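 Corepressor recruitment is measured by adding terbium-labeled anti-His antibody and FITC SMRT-ID2 peptide, at 5 and 200 nM final, after a 20-minute room-temperature protein–compound incubation. After one further hour, signal is converted to percent response between DMSO and 500 nM T0070907 wells.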

| Compound | AC50 [nM] |
| --- | --- |
| COc1cc(-c2cc(C(=O)N3CCC(C(=O)NCC4(C)OCCO4)CC3)n[nH]2)c(Cl)cn1 [1-[5-(5-chloro-2-methoxypyridin-4-yl)-1H-pyrazole-3-carbonyl]-N-[(2-methyl-1,3-dioxolan-2-yl)methyl]piperidine-4-carboxamide] | > 1000 |
| CCC1(O)CCC(NC(=O)C2CCN(C(=O)c3cc(-c4cc(OC)ncc4Cl)[nH]n3)CC2)CC1 (stereo not drawn) [1-[5-(5-chloro-2-methoxypyridin-4-yl)-1H-pyrazole-3-carbonyl]-N-(4-ethyl-4-hydroxycyclohexyl)piperidine-4-carboxamide] | > 1000 |
| COc1cc(-c2cc(C(=O)N3CCC(C(=O)Nc4nccnc4O)CC3)n[nH]2)c(Cl)cn1 [1-[5-(5-chloro-2-methoxypyridin-4-yl)-1H-pyrazole-3-carbonyl]-N-(3-hydroxypyrazin-2-yl)piperidine-4-carboxamide] | > 1000 |
| O=C(c1cc(-c2ccncc2)[nH]n1)N1CCC(C(=O)N2CCN(CC(F)(F)F)CC2)CC1 [1-{1-[5-(pyridin-4-yl)-1H-pyrazole-3-carbonyl]piperidine-4-carbonyl}-4-(2,2,2-trifluoroethyl)piperazine] | > 1000 |
| COc1cc(-c2cc(C(=O)N3CCC(C#N)(C(=O)NCc4cccc(Cl)c4)CC3)n[nH]2)c(Cl)cn1 [1-[5-(5-chloro-2-methoxypyridin-4-yl)-1H-pyrazole-3-carbonyl]-N-[(3-chlorophenyl)methyl]-4-cyanopiperidine-4-carboxamide] | > 1000 |
| Cc1cc(-c2cc(C(=O)N3CCC(C(=O)N[C@H]4CC[C@@](O)(C(F)(F)F)CC4)CC34CC4)n[nH]2)c([C@@H](C)O)cn1 (single isomer, unassigned) | > 1000 |
| O=C(N[C@H]1CC[C@H](O)CC1)C1CCN(C(=O)c2cc(-c3ccncc3)[nH]n2)CC1 | > 1000 |
| COc1cc(-c2cc(C(=O)N3CCC(C(=O)NC(C)(C)c4ccccc4)CC3)n[nH]2)c(Cl)cn1 [1-[5-(5-chloro-2-methoxypyridin-4-yl)-1H-pyrazole-3-carbonyl]-N-(2-phenylpropan-2-yl)piperidine-4-carboxamide] | > 1000 |

Next, values leading:

| AC50 [nM] | Compound |
| --- | --- |
| > 1000 | COc1ccc(CNC(=O)C2CCN(C(=O)c3cc(-c4cc(OC)ncc4Cl)[nH]n3)CC2)cn1 [1-[5-(5-chloro-2-methoxypyridin-4-yl)-1H-pyrazole-3-carbonyl]-N-[(6-methoxypyridin-3-yl)methyl]piperidine-4-carboxamide] |
| > 1000 | COc1nc(C)cc(C)c1CNC(=O)C1CCN(C(=O)c2cc(-c3ccncc3)[nH]n2)CC1 [N-[(2-methoxy-4,6-dimethylpyridin-3-yl)methyl]-1-[5-(pyridin-4-yl)-1H-pyrazole-3-carbonyl]piperidine-4-carboxamide] |
| > 1000 | CC1CCC(NC(=O)C2CCN(C(=O)c3cc(-c4ccncc4)[nH]n3)CC2)CC1 (stereo not drawn) [N-(4-methylcyclohexyl)-1-[5-(pyridin-4-yl)-1H-pyrazole-3-carbonyl]piperidine-4-carboxamide] |
| > 1000 | CC1CCCCC1NC(=O)C1CCN(C(=O)c2cc(-c3ccncc3)[nH]n2)CC1 (stereo not drawn) [N-(2-methylcyclohexyl)-1-[5-(pyridin-4-yl)-1H-pyrazole-3-carbonyl]piperidine-4-carboxamide] |
